Results published in patent US4489163A, “rCRF and analogs” (The Salk Institute for Biological Studies, priority 1983, dated 1984).
Where a SMILES comes first, the peptide text is derived from it. [ ]: non-standard residue; d: D form. The star is where a group is joined. Nle = CCCC[C@H](N)C(=O)O; Bz = O=C(c1ccccc1)*

Columns and labels:
[1] = tested on: ACTH and β-endorphin-like (β-END-LI) secretion; assay: ACTH and β-END-LI secretion in vivo after intravenous administration; set-up: species or system rats; details: for stimulation of secretion of ACTH and β-END-LI: general procedure of Example III, in vitro or in vivo not stated
Text: (§1) The synthetic and the natural rCRF were examined for their effects on the secretion of ACTH and β-endorphin in vitro and the synthetic rCRF was also examined in vivo.

[2] = lowering of blood pressure in rats; assay type: in vivo; details: for lowering of blood pressure: species not given, general procedure of Example III; for lowering of blood pressure compared with rCRF: relative to rCRF, species not stated
[3] = mammals; reported; cited from earlier work
[4] = tested on: secretion of ACTH and β-endorphin; details: reported; cited from earlier work
[5] = tested on: cultured rat pituitary cells; assay: secretion of ACTH and β-endorphin by cultured rat pituitary cells in vitro; assay type: cell-based; details: in vitro
Text: as §1

Compound | stimulation of secretion of ACTH and β-END-LI [1] | lowering of blood pressure [2] | other results
H-SEEPPISLDLTFHLLREVAEMTRAEQLAQQAHSNRKLMEII-NH2 [VII] | stimulates the secretion of ACTH and β-END-LI | very significant lowering of blood pressure | 
H-SQEPPISLDLTFHLLREVLEMAKAEQLAQQAHSNRKLLEII-NH2 [XIV] | stimulates the secretion of ACTH and β-END-LI | very significant lowering of blood pressure | 
H-SEEPPISLDLTFELLREVLEVARAEQLAQQAHSNRKLMEII-NH2 [IX] | stimulates the secretion of ACTH and β-END-LI | very significant lowering of blood pressure | lowering of blood pressure compared with rCRF [2]: to a great extent than rCRF
H-PPISIDLSLELLRKMIEIAKQEKEKQQAANNRLLMDTI-NH2 [XVI] | stimulates the secretion of ACTH and β-END-LI | very significant lowering of blood pressure | 
CC[C@H](C)[C@H](NC(=O)[C@@H](NC(=O)[C@H](CC(=O)O)NC(=O)[C@H](CCSC)NC(=O)[C@H](CC(C)C)NC(=O)[C@H](CC(C)C)NC(=O)[C@H](CCCNC(=N)N)NC(=O)[C@H](CC(N)=O)NC(=O)[C@H](CC(N)=O)NC(=O)[C@H](C)NC(=O)[C@H](C)NC(=O)[C@H](CCC(N)=O)NC(=O)[C@H](CCC(N)=O)NC(=O)[C@H](CCCCN)NC(=O)[C@H](CC(C)C)NC(=O)[C@H](CCCCN)NC(=O)[C@H](CCC(=O)O)NC(=O)[C@H](CCC(N)=O)NC(=O)[C@H](CCCCN)NC(=O)[C@H](CCC(=O)O)NC(=O)[C@@H](NC(=O)[C@H](CCC(=O)O)NC(=O)[C@@H](NC(=O)[C@H](CCSC)NC(=O)[C@H](CCCCN)NC(=O)[C@H](CCCNC(=N)N)NC(=O)[C@H](CC(C)C)NC(=O)[C@H](CC(C)C)NC(=O)[C@H](CCC(=O)O)NC(=O)[C@H](CC(C)C)NC(=O)[C@H](CO)NC(=O)[C@H](CC(C)C)NC(=O)[C@H](CC(=O)O)NC(=O)[C@@H](NC(=O)[C@H](CO)NC(=O)[C@@H](NC(=O)[C@@H]1CCCN1C(=O)[C@@H]1CCCN1C(=O)CNC(=O)[C@@H]1CCC(=O)N1)[C@@H](C)CC)[C@@H](C)CC)[C@@H](C)CC)[C@@H](C)CC)[C@@H](C)O)C(N)=O [XVIII] | stimulates the secretion of ACTH and β-END-LI | very significant lowering of blood pressure | 
CC[C@H](C)[C@H](NC(=O)[C@@H](NC(=O)[C@H](CC(=O)O)NC(=O)[C@H](CC(C)C)NC(=O)[C@H](CC(C)C)NC(=O)[C@H](CC(C)C)NC(=O)[C@H](CCCNC(=N)N)NC(=O)[C@H](CC(N)=O)NC(=O)[C@H](CC(N)=O)NC(=O)[C@H](C)NC(=O)[C@H](C)NC(=O)[C@H](CCC(N)=O)NC(=O)[C@H](CCC(N)=O)NC(=O)[C@H](CCCCN)NC(=O)[C@H](CCC(=O)O)NC(=O)[C@H](CCCCN)NC(=O)[C@H](CCC(=O)O)NC(=O)[C@H](CCC(N)=O)NC(=O)[C@H](CCCCN)NC(=O)[C@H](CCCNC(=N)N)NC(=O)[C@H](C)NC(=O)[C@H](CCC(=O)O)NC(=O)[C@@H](NC(=O)[C@H](CCSC)NC(=O)[C@H](CCCCN)NC(=O)[C@H](CCCNC(=N)N)NC(=O)[C@H](CC(C)C)NC(=O)[C@H](CC(C)C)NC(=O)[C@H](CCC(=O)O)NC(=O)[C@H](CC(C)C)NC(=O)[C@H](CO)NC(=O)[C@H](CC(C)C)NC(=O)[C@H](CC(=O)O)NC(=O)[C@@H](NC(=O)[C@H](CO)NC(=O)[C@@H](NC(=O)[C@@H]1CCCN1C(=O)[C@@H]1CCCN1C(=O)CNC(=O)[C@@H]1CCC(=O)N1)[C@@H](C)CC)[C@@H](C)CC)[C@@H](C)CC)[C@@H](C)CC)C(N)=O [XVII] | stimulates the secretion of ACTH and β-END-LI | very significant lowering of blood pressure | 
H-Ser-Gln-Glu-Pro-Pro-Ile-Ser-Leu-Asp-Leu-Thr-Phe-His-Leu-Leu-Arg-Glu-Val-Leu-Glu-Met-Thr-Lys-Ala-Asp-Gln-Leu-Ala-Gln-Gln-Ala-His-Ser-Asn-Arg-Lys-Leu- Leu-Asp-Ile-Ala-NH2 (H-SQEPPISLDLTFHLLREVLEMTKADQLAQQAHSNRKLLDIA-NH2) [oCRF, ovine corticotropin releasing factor characterized in 1981] |  |  | biological activity in lowering blood pressure [3]: biological activity in lowering blood pressure in mammals; biological activity in stimulating the secretion of ACTH and β-endorphin [4]: stimulating the secretion of ACTH and β-endorphin
CC[C@H](C)[C@H](NC(=O)[C@@H](NC(=O)[C@H](CCC(=O)O)NC(=O)[C@H](CCSC)NC(=O)[C@H](CC(C)C)NC(=O)[C@H](CCCCN)NC(=O)[C@H](CCCNC(=N)N)NC(=O)[C@H](CC(N)=O)NC(=O)[C@H](CO)NC(=O)[C@H](Cc1c[nH]cn1)NC(=O)[C@H](C)NC(=O)[C@H](CCC(N)=O)NC(=O)[C@H](CCC(N)=O)NC(=O)[C@H](C)NC(=O)[C@H](CC(C)C)NC(=O)[C@H](CCC(N)=O)NC(=O)[C@H](CCC(=O)O)NC(=O)[C@H](C)NC(=O)[C@H](CCCNC(=N)N)NC(=O)[C@H](C)NC(=O)[C@H](CCSC)NC(=O)[C@H](CCC(=O)O)NC(=O)[C@H](CC(C)C)NC(=O)[C@@H](NC(=O)[C@H](CCC(=O)O)NC(=O)[C@H](CCCNC(=N)N)NC(=O)[C@H](CC(C)C)NC(=O)[C@H](CC(C)C)NC(=O)[C@H](Cc1c[nH]cn1)NC(=O)[C@H](Cc1ccccc1)NC(=O)[C@@H](NC(=O)[C@H](CC(C)C)NC(=O)[C@H](CC(=O)O)NC(=O)[C@H](CC(C)C)NC(=O)[C@H](CO)NC(=O)[C@@H](NC(=O)[C@@H]1CCCN1C(=O)[C@@H]1CCCN1C(=O)[C@H](CCC(=O)O)NC(=O)[C@H](CCC(=O)O)NC(=O)[C@@H](N)CO)[C@@H](C)CC)[C@@H](C)O)C(C)C)[C@@H](C)CC)C(N)=O [natural rCRF] |  |  | stimulation of ACTH and β-END-LI secretion in vivo (words) ([1]; in vivo, several rat preparations, listed as isolated rCRF): stimulate ACTH and β-endorphin activies; stimulation of secretion of ACTH and β-endorphin in vitro [5]: high potency; stimulation of secretion of ACTH and β-endorphin in vitro ([5]; listed as isolated rCRF): stimulate ACTH and β-endorphin activies
H-SEEPPIS[Nle]DLSFHLLREVLEMARAEQLAQQAHLNRKLMEII-NH2 [X] | stimulates the secretion of ACTH and β-END-LI | very significant lowering of blood pressure | 
CCCC[C@H](NC(=O)[C@@H](NC(=O)[C@H](CC(C)C)NC(=O)[C@H](CC(=O)O)NC(=O)[C@H](CC(C)C)NC(=O)[C@H](CO)NC(=O)[C@@H](NC(=O)[C@@H]1CCCN1C(=O)[C@@H]1CCCN1C(=O)[C@H](CCC(=O)O)NC(=O)CNC(=O)c1ccccc1)[C@@H](C)CC)[C@@H](C)O)C(=O)N[C@@H](Cc1c[nH]cn1)C(=O)N[C@@H](CC(C)C)C(=O)N[C@@H](CC(C)C)C(=O)N[C@@H](CCCNC(=N)N)C(=O)N[C@@H](CCC(=O)O)C(=O)N[C@H](C(=O)N[C@@H](CC(C)C)C(=O)N[C@@H](CCC(=O)O)C(=O)N[C@@H](CCSC)C(=O)N[C@@H](C)C(=O)N[C@@H](CCCNC(=N)N)C(=O)N[C@@H](C)C(=O)N[C@@H](CCC(=O)O)C(=O)N[C@@H](CCC(N)=O)C(=O)N[C@@H](CC(C)C)C(=O)N[C@@H](C)C(=O)N[C@@H](CCC(N)=O)C(=O)N[C@@H](CCC(N)=O)C(=O)N[C@@H](C)C(=O)N[C@@H](Cc1c[nH]cn1)C(=O)N[C@@H](CO)C(=O)N[C@@H](CC(N)=O)C(=O)N[C@@H](CCCNC(=N)N)C(=O)N[C@@H](CCCCN)C(=O)N[C@@H](CC(C)C)C(=O)N[C@@H](CCSC)C(=O)N[C@@H](CCC(=O)O)C(=O)N[C@H](C(=O)N[C@H](C(N)=O)[C@@H](C)CC)[C@@H](C)CC)C(C)C [XII] (Bz-GEPPISLDLT[Nle]HLLREVLEMARAEQLAQQAHSNRKLMEII-NH2) | stimulates the secretion of ACTH and β-END-LI | very significant lowering of blood pressure | 
Ac-PPISLDLTFHLLREVLEMARAEQLAQQAHSNRKLMDII-NH2 [XIII] | stimulates the secretion of ACTH and β-END-LI | very significant lowering of blood pressure | lowering of blood pressure compared with rCRF [2]: to a greater extent than rCRF
H-SEEPPISLDLTFHLLREVLEAARAEQLAQQAHSNRKLLEI[Nle]-NH2 [XI] | stimulates the secretion of ACTH and β-END-LI | very significant lowering of blood pressure | 
H-SEEPPISLDLTFHLLREVLE[Nle]ARAEQLAQQAYSNRKLMEII-NH2 [XV] | stimulates the secretion of ACTH and β-END-LI | very significant lowering of blood pressure | lowering of blood pressure compared with rCRF [2]: to a greater extent than rCRF
CC[C@H](C)[C@H](NC(=O)[C@@H](NC(=O)[C@H](CC(=O)O)NC(=O)[C@H](CC(C)C)NC(=O)[C@H](CC(C)C)NC(=O)[C@H](CC(C)C)NC(=O)[C@H](CCCNC(=N)N)NC(=O)[C@H](CC(N)=O)NC(=O)[C@H](CC(N)=O)NC(=O)[C@H](C)NC(=O)[C@H](C)NC(=O)[C@H](CCC(N)=O)NC(=O)[C@H](CCC(N)=O)NC(=O)[C@H](CCCCN)NC(=O)[C@H](CCC(=O)O)NC(=O)[C@H](CCCCN)NC(=O)[C@H](CCC(=O)O)NC(=O)[C@H](CCC(N)=O)NC(=O)[C@H](CCCCN)NC(=O)[C@H](CCC(=O)O)NC(=O)[C@@H](NC(=O)[C@H](CCC(=O)O)NC(=O)[C@@H](NC(=O)[C@H](CCSC)NC(=O)[C@H](CCCCN)NC(=O)[C@H](CCCNC(=N)N)NC(=O)[C@H](CC(C)C)NC(=O)[C@H](CC(C)C)NC(=O)[C@H](CCC(=O)O)NC(=O)[C@H](CC(C)C)NC(=O)[C@H](CO)NC(=O)[C@H](CC(C)C)NC(=O)[C@H](CC(=O)O)NC(=O)[C@@H](NC(=O)[C@H](CO)NC(=O)[C@@H](NC(=O)[C@@H]1CCCN1C(=O)[C@@H]1CCCN1C(=O)CNC(=O)[C@@H]1CCC(=O)N1)[C@@H](C)CC)[C@@H](C)CC)[C@@H](C)CC)[C@@H](C)CC)[C@@H](C)O)C(N)=O [Sauvagine] |  |  | biological activity in lowering blood pressure [3]: biological activity in lowering blood pressure in mammals; biological activity in stimulating the secretion of ACTH and β-endorphin [4]: stimulating the secretion of ACTH and β-endorphin
